According to US10683293B2, “Optionally fused heterocyclyl-substituted derivatives of pyrimidine useful for the treatment of inflammatory, metabolic, oncologic and autoimmune diseases” (NUEVOLUTION A/S, priority 2014, dated 2020):

Assays:
[1] = target: T1, human RORγt (Ligand Binding Domain) (Homo sapiens, UniProt P51449); assay: Fluorescence Polarization (FP) Assay; settings: 100 nM human RORγt LBD, 25 nM TAMRA probe, values are activity range bounds
T1 construct: purchased Crelux (Planegg, Germany) batch no PC5032-1
T1 sequence (P51449 269-508 limits assumed): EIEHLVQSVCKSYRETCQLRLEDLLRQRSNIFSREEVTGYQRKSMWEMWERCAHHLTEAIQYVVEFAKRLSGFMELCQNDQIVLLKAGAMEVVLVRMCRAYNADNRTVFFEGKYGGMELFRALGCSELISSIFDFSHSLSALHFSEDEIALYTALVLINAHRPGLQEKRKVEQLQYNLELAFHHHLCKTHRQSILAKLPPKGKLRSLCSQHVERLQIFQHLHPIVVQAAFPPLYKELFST
Summary of the method: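 In vitro fluorescence polarization binding assay on the RORγt ligand-binding pocket. A TAMRA-labelled RORγt ligand probe (MW 910 g/mol) was used, with DMSO as negative control.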

[2] = target: T2, ligand binding domain of human RORγ (Homo sapiens, UniProt P51449); assay: RORγ Reporter Assay (Gal4); type: cell-based; settings: for inhibition at 1 µM: HEK-293T, 1 μM test compound, HEK293t RORγ reporter cells, 24 hour, read-out: Gal4 activity range @ 1 μM (% inhibition); for Gal4 activity range @ 0.1 μM (% inhibition): RORγ Reporter Assay (Gal4), HEK293t reporter cells, compound at 0.1 μM, values are activity range bounds
T2 construct: host or cells: HEK293t
T2 sequence (P51449 269-508 limits assumed): T1 sequence (P51449 269-508 limits assumed)
Procedure: The activity of the compounds was evaluated using a Fluorescence Polarization (FP) Assay and, RORγ Reporter assay (also referred to as Gal4 assay). The FP assay is an in vitro assay monitoring binding within the ligand binding pocket. The RORγ and the Th17 assays (another suitable assay) are both cell-based assays monitoring functional activity of the compound assayed.
RORγ Reporter Assay (Gal4)
Cell-based RORγ functional assays were performed using a commercially available assay product (INDIGO Biosciences, State College, Pa., USA; product # IB04001). The RORγ reporter cells are HEK293t cells transfected with one vector that provides high level constitutive expression of a hybrid protein comprised of the yeast Gal4-DNA binding domain fused to the ligand binding domain of human RORγ, and a second vector comprising the firefly luciferase cDNA functionally linked to the upstream activation sequence (UAS) of yeast Gal4. A suspension of RORγ Reporter Cells was prepared using the protocol and culture medium provided in the kit product, and 100 μl of the Reporter Cell suspension was then dispensed into wells of a white, collagen-treated, 96-well assay plate. Concentrated stocks of test compounds were prepared in DMSO, then further diluted using media provided in the kit to generate ‘2×-concentration’ treatment media. 100 μl of medium for each respective treatment concentration dispensed into triplicate assay wells, thereby combining with the reporter cells. All media formulations contained 10% charcoal stripped Fetal Bovine Serum, but are otherwise proprietary to INDIGO Biosciences. Final treatment concentrations for each test compound were 1,000 nM and 100 nM, each with 0.1% residual DMSO. Separate control treatments were media supplemented with vehicle only (0.1% DMSO) to determine the constitutive level of RORγ activity in the reporter cells, and the reference inverse-agonist ursolic acid (f.c. 6,000 nM to 8.2 nM in 3-fold decrements) to establish a positive control inverse-agonist dose response. Assay plates were placed in a 37° C., 5% CO2, 85% humidity incubator for 24 hour. Treatment media were then discarded, 100 μl of luciferase detection reagent was added to each well, and relative light units (RLUs) were quantified from each assay well using a plate reading luminometer. Values of average RLU+/−standard deviation were computed for all treatment sets, followed by the calculations of fold-reduction: [Average RLUVehicle/Average RLUTest Cmpd]. Percent-reduction of RORγ activity in response to respective test compound treatments was calculated: [100*(1−[Ave RLUTest Cmpd/Ave RLUVehicle)] where the theoretical minimum reduction (0% reduction) derives from Vehicle treatment only, no treatment compound. In some aspects it may be of interest to provide compounds with selective modulation of RORγ for example compounds that are selective to RORγ over RORα, compounds that are selective for RORγ versus RORPβ, and compounds that are selective for RORγ versus BOTH RORα and RORPβ. It may also be of interest to provide compounds that are selective for RORγ versus further nuclear hormone receptors such as CAR1, FXR, GR, LXRα, LXRβ, PPARα, PXR, RARα, RXRα, TRα, VDR. It is apparent to those skilled in the art that these nuclear hormone receptors are merely examples, and that selectivity against other nuclear receptors may also be of interest. It may for example be of interest to provide compounds that modulate RORγ and one or more further nuclear hormone receptors, as well as compounds that modulate both RORγ and RORα, or RORγ and RORβ. It may also be of interest to provide compounds that modulate RORγ and BOTH RORα and RORP, as well as compounds that modulate both RORγ and one or more further nuclear hormone receptors such as CAR1, FXR, GR, LXRα, LXRβ, PPARα, PXR, RARα, RXRα, TRα, VDR. It is apparent to those skilled in the art that these nuclear hormone receptors are merely examples, and that modulation of even other nuclear receptors may also be of interest. […]

Row | IC50 [1] [nM] | inhibition at 1 µM [2] [%] | Gal4 activity range @ 0.1 μM (% inhibition) [2] [% inhibition] | Compound
1 | < 1000 | > 80 | >20 | Fc1c(NCC2CCOCC2)ncnc1N(Cc1ccc(C(F)(F)F)cc1)C1CC1 [Example A12, N4-cyclopropyl-5-fluoro-N6-(tetrahydropyran-4-ylmethyl)-N4-[[4-(trifluoromethyl)phenyl]methyl] pyrimidine-4,6-diamine]
2 | < 500 | > 80 | >20 | NC(=O)Cc1ccc(CNc2ncnc(N(C3CC3)C(c3ccc(C(F)(F)F)cc3)C3CC3)c2F)cc1 (stereo not drawn) [Example A13, 2-[4-[[[6-[cyclopropyl-[cyclopropyl-[4-(trifluoromethyl)phenyl]methyl]amino]-5-fluoro-pyrimidin-4-yl]amino]methyl]phenyl]acetamide]
3 | < 500 | > 80 | >50 | N#CCc1ccc(CNc2ncnc(N(Cc3ccc(C(F)(F)F)cc3)C3CC3)c2F)cc1 [Example A14, 2-[4-[[[6-[cyclopropyl-[[4-(trifluoromethyl)phenyl]methyl]amino]-5-fluoro-pyrimidin-4-yl]amino]methyl]phenyl]acetonitrile]
4 | < 500 | > 80 | >20 | NC(=O)Cc1ccc(CNc2ncnc(N(Cc3ccc(C(F)(F)F)cc3)C3CCC3)c2F)cc1 [Example A15, 2-[4-[[[6-[cyclobutyl-[[4-(trifluoromethyl)phenyl]methyl]amino]-5-fluoro-pyrimidin-4-yl]amino]methyl]phenyl]acetamide]
5 | < 500 | > 20 | >0 | COC(=O)CC(c1ccc(C(F)(F)F)cc1)N(c1ncnc(NCc2ccc(CC(N)=O)cc2)c1F)C1CC1 (stereo not drawn) [Example A16, methyl 3-[[6-[[4-(2-amino-2-oxo-ethyl)phenyl]methylamino]-5-fluoro-pyrimidin-4-yl]-cyclopropyl-amino]-3-[4-(trifluoromethyl)phenyl]propanoate]
6 | < 2000 | – | – | O=C(O)CC1(Nc2ncnc(N(Cc3ccc(C(F)(F)F)cc3)C3CC3)c2F)CCOCC1 [Example A183, 2-[4-[[6-[cyclopropyl-[[4-(trifluoromethyl)phenyl]methyl]amino]-5-fluoro-pyrimidin-4-yl]amino]tetrahydropyran-4-yl]acetic acid]
7 | < 10000 | – | – | O=C(O)C(CNc1ncnc(N(Cc2ccc(C(F)(F)F)cc2)C2CC2)c1F)C1CCOCC1 (stereo not drawn) [Example A184, 3-[[6-[cyclopropyl-[[4-(trifluoromethyl)phenyl]methyl]amino]-5-fluoro-pyrimidin-4-yl]amino]-2-tetrahydropyran-4-yl-propanoic acid]
8 | < 10000 | – | – | O=C(O)C(CNc1ncnc(N(Cc2ccc(C(F)(F)F)cc2)C2CC2)c1F)CC1CCOCC1 (stereo not drawn) [Example A185, 2-[[[6-[cyclopropyl-[[4-(trifluoromethyl)phenyl]methyl]amino]-5-fluoro-pyrimidin-4-yl]amino]methyl]-3-tetrahydropyran-4-yl-propanoic acid]

Further lines, the compound ahead of its results:

Row | Compound | IC50 [1] [nM] | inhibition at 1 µM [2] [%] | Gal4 activity range @ 0.1 μM (% inhibition) [2] [% inhibition]
9 | Cc1ccc(CNc2ncnc(N(Cc3ccc(C(F)(F)F)cc3)C3CC3)c2F)cn1 [Example A1, N4-cyclopropyl-5-fluoro-N6-[(6-methyl-3-pyridyl)methyl]-N4-[[4-(trifluoromethyl)phenyl]methyl] pyrimidine-4,6-diamine] | < 1000 | > 80 | >20
10 | NC(=O)Cc1ccc(CNc2ncnc(N(Cc3ccc(C(F)(F)F)cc3)C3CC3)c2F)cc1 [Example A2, 2-[4-[[[6-[cyclopropyl-[[4-(trifluoromethyl)phenyl]methyl]amino]-5-fluoro-pyrimidin-4-yl]amino]methyl]phenyl]acetamide] | < 500 | > 80 | >80
11 | CC(c1ccc(C(F)(F)F)cc1)N(c1ncnc(NCc2ccc(CC(N)=O)cc2)c1F)C1CC1 (stereo not drawn) [Example A3, 2-[4-[[[6-[cyclopropyl-[1-[4-(trifluoromethyl)phenyl]ethyl]amino]-5-fluoro-pyrimidin-4-yl]amino]methyl]phenyl]acetamide] | < 500 | > 80 | >50
12 | NC(=O)Cc1ccc(CNc2ncnc(N(Cc3ccc(C(F)(F)F)cc3)C3CCOC3)c2F)cc1 (stereo not drawn) [Example A4, 2-[4-[[[5-fluoro-6-[tetrahydrofuran-3-yl-[[4-(trifluoromethyl)phenyl]methyl]amino]pyrimidin-4-yl]amino]methyl]phenyl]acetamide] | < 2000 | > 50 | >0
13 | OC1(CNc2ncnc(N(Cc3ccc(C(F)(F)F)cc3)C3CC3)c2F)CCOC1 (stereo not drawn) [Example A5, 3-[[[6-[cyclopropyl-[[4-(trifluoromethyl)phenyl]methyl]amino]-5-fluoro-pyrimidin-4-yl]amino]methyl]tetrahydrofuran-3-ol] | < 1000 | > 80 | >20
14 | NC(=O)Cc1ccc(CNc2ncnc(N(Cc3ccc(OC(F)(F)F)cc3)C3CC3)c2F)cc1 [Example A6, 2-[4-[[[6-[cyclopropyl-[[4-(trifluoromethoxy)phenyl]methyl]amino]-5-fluoro-pyrimidin-4-yl]amino]methyl]phenyl]acetamide] | < 500 | > 80 | >80
15 | O=S1(=O)CCC(O)(CNc2ncnc(N(Cc3ccc(C(F)(F)F)cc3)C3CC3)c2F)CC1 [Example A8, 4-[[[6-[cyclopropyl-[[4-(trifluoromethyl)phenyl]methyl]amino]-5-fluoro-pyrimidin-4-yl]amino]methyl]-1,1-dioxo-thian-4-ol] | < 500 | > 80 | >50
16 | O=S(=O)(NC1CC1)c1ccc(CNc2ncnc(N(Cc3ccc(C(F)(F)F)cc3)C3CC3)c2F)cc1 [Example A9, N-cyclopropyl-4-[[[6-[cyclopropyl-[[4-(trifluoromethyl)phenyl]methyl]amino]-5-fluoro-pyrimidin-4-yl]amino]methyl]benzenesulfonamide] | < 500 | > 80 | >20
17 | CC(=O)N1CCC(CNc2ncnc(N(Cc3ccc(C(F)(F)F)cc3)C3CC3)c2F)CC1 [Example A11, 1-[4-[[[6-[cyclopropyl-[[4-(trifluoromethyl)phenyl]methyl]amino]-5-fluoro-pyrimidin-4-yl]amino]methyl]-1-piperidyl]ethanone] | < 500 | > 80 | >50
